What follows are compounds tested against AChE (Electrophorus electricus) (Electrophorus electricus, UniProt O42275) (assay: In vitro acetylcholinesterase inhibition assay).
Type: biochemical

Chain of AChE (Electrophorus electricus) (O42275 24-633): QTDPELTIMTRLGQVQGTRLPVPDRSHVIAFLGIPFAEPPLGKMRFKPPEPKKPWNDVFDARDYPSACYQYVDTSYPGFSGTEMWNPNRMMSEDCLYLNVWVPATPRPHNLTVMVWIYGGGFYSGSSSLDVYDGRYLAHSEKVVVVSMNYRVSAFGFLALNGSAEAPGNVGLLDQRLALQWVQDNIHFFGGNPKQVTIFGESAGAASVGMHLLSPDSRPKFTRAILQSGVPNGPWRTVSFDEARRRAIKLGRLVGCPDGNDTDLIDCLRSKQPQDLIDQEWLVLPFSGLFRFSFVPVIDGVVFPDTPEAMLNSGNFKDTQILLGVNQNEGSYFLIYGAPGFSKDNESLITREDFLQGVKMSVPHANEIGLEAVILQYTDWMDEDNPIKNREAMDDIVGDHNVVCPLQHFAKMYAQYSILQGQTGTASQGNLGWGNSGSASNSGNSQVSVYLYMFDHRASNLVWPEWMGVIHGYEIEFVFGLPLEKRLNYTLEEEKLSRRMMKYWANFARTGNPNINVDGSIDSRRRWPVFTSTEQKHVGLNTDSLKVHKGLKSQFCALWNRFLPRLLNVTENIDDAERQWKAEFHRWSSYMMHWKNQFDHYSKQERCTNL

Compared with `COc1cc(OCCCCCOc2cc(=O)oc3ccccc23)ccc1-c1nc2ccccc2s1` [Compound 3j, 4-((5-(4-(Benzo[d]thiazol-2-yl)-3-methoxyphenoxy)pentyl)oxy)-2H-chromen-2-one], `COc1cc(OCCCCCCOc2cc(=O)oc3ccccc23)ccc1-c1nc2ccccc2s1` [Compound 3o, 4-((6-(4-(Benzo[d]thiazol-2-yl)-3-methoxyphenoxy)hexyl)oxy)-2H-chromen-2-one] is 4.1-fold higher in IC50: 7.5 ± 0.16 µM for the first, 30.7 ± 0.23 µM for the second.

Compared with `COc1cc(-c2nc3ccccc3s2)ccc1OCCCCCCOc1cc(=O)oc2ccccc12` [Compound 3l, 4-((6-(4-(Benzo[d]thiazol-2-yl)-2-methoxyphenoxy)hexyl)oxy)-2H-chromen-2-one], `COc1cc(-c2nc3ccccc3s2)ccc1OCCCCCOc1cc(=O)oc2ccccc12` [Compound 3g, 4-((5-(4-(Benzo[d]thiazol-2-yl)-2-methoxyphenoxy)pentyl)oxy)-2H-chromen-2-one] is 4.9-fold lower in IC50: 33.2 ± 0.28 µM for the first, 6.8 ± 0.13 µM for the second. The second is the more potent here.

Going from `COc1cc(-c2nc3ccccc3s2)cc(OC)c1OCCCCCCOc1cc(=O)oc2ccccc12` [Compound 3n, 4-((6-(4-(Benzo[d]thiazol-2-yl)-2,6-dimethoxyphenoxy)hexyl)oxy)-2H-chromen-2-one] to `COc1cc(-c2nc3ccccc3s2)cc(OC)c1OCCCCCOc1cc(=O)oc2ccccc12` [Compound 3i, 4-((5-(4-(Benzo[d]thiazol-2-yl)-2,6-dimethoxyphenoxy)pentyl)oxy)-2H-chromen-2-one], the IC50 falls from 12.1 ± 0.19 µM to 2.7 ± 0.1 µM (4.5-fold).

Going from `CCOc1cc(-c2nc3ccccc3s2)ccc1OCCCCCOc1cc(=O)oc2ccccc12` [Compound 3h, 4-((5-(4-(Benzo[d]thiazol-2-yl)-2-ethoxyphenoxy)pentyl)oxy)-2H-chromen-2-one] to `CCOc1cc(-c2nc3ccccc3s2)ccc1OCCCCCCOc1cc(=O)oc2ccccc12` [Compound 3m, 4-((6-(4-(Benzo[d]thiazol-2-yl)-2-ethoxyphenoxy)hexyl)oxy)-2H-chromen-2-one], the IC50 rises from 6.5 ± 0.12 µM to 27.9 ± 0.2 µM (4.3-fold).

`COc1cc(OCCCCOc2cc(=O)oc3ccccc23)ccc1-c1nc2ccccc2s1` [Compound 3e, 4-(4-(4-(Benzo[d]thiazol-2-yl)-3-methoxyphenoxy)butoxy)-2H-chromen-2-one] and `COc1cc(-c2nc3ccccc3s2)ccc1OCCCCOc1cc(=O)oc2ccccc12` [Compound 3b, 4-(4-(4-(Benzo[d]thiazol-2-yl)-2-methoxyphenoxy)butoxy)-2H-chromen-2-one] are within 1.5-fold of each other in IC50: 18.7 ± 0.28 µM for the first, 16.5 ± 0.23 µM for the second.

Going from `CCOc1cc(-c2nc3ccccc3s2)ccc1OCCCCOc1cc(=O)oc2ccccc12` [Compound 3c, 4-(4-(4-(Benzo[d]thiazol-2-yl)-2-ethoxyphenoxy)butoxy)-2H-chromen-2-one] to `O=c1cc(OCCCCOc2ccc(-c3nc4ccccc4s3)cc2)c2ccccc2o1` [Compound 3a, 4-(4-(4-(Benzo[d]thiazol-2-yl)phenoxy)butoxy)-2H-chromen-2-one], the IC50 falls from 15.8 ± 0.18 µM to 4.23 ± 0.11 µM (3.7-fold).

`COc1cc(-c2nc3ccccc3s2)cc(OC)c1OCCCCOc1cc(=O)oc2ccccc12` [Compound 3d, 4-(4-(4-(Benzo[d]thiazol-2-yl)-2,6-dimethoxyphenoxy)butoxy)-2H-chromen-2-one] and `O=c1cc(OCCCCCOc2ccc(-c3nc4ccccc4s3)cc2)c2ccccc2o1` [Compound 3f, 4-((5-(4-(Benzo[d]thiazol-2-yl)phenoxy)pentyl)oxy)-2H-chromen-2-one] are within 1.5-fold of each other in IC50: 6.8 ± 0.1 µM for the first, 8.5 ± 0.18 µM for the second.

`O=c1cc(OCCCCCCOc2ccc(-c3nc4ccccc4s3)cc2)c2ccccc2o1` [Compound 3k, 4-((6-(4-(Benzo[d]thiazol-2-yl)phenoxy)hexyl)oxy)-2H-chromen-2-one] gave an IC50 of 35.8 ± 0.3 µM.

— paper PMC11531508 (Scientific Reports, 2024)
